Experimental data published in ChEMBL document CHEMBL1201862, “PubChem BioAssay data set” (2004).
The source made the active and inactive calls.

How the values were obtained:
Cytochrome P450 2D6 = Cytochrome P450 2D6 (Homo sapiens, UniProt P10635);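 further: CYP2D6 member of a cytochrome P450 panel assay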
Protein skinhead-1 = biological target: T1, Protein skinhead-1 (Caenorhabditis elegans, UniProt P34707); format: functional
T1 sequence (P34707 whole entry): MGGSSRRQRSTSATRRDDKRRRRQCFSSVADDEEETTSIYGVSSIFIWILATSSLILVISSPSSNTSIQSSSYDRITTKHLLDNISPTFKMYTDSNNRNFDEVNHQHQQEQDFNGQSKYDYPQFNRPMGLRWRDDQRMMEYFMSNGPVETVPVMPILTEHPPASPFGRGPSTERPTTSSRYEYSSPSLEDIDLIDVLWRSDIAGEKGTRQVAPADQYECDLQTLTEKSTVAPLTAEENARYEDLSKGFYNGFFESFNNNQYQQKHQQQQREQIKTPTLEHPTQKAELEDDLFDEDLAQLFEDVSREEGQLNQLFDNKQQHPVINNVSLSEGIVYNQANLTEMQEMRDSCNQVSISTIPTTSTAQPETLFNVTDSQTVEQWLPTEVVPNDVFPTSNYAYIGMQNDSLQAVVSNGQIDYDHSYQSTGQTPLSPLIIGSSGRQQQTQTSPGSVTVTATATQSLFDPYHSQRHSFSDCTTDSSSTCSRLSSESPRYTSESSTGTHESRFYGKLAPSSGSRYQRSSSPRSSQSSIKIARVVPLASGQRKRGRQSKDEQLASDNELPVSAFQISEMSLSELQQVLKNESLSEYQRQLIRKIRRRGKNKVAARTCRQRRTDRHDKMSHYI

Cytochrome P450 1A2 = biological target: T2, Cytochrome P450 1A2 (Homo sapiens, UniProt P05177);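 further: PubChem cytochrome P450 panel assay, CYP1A2 panel member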
T2 sequence (P05177 whole entry): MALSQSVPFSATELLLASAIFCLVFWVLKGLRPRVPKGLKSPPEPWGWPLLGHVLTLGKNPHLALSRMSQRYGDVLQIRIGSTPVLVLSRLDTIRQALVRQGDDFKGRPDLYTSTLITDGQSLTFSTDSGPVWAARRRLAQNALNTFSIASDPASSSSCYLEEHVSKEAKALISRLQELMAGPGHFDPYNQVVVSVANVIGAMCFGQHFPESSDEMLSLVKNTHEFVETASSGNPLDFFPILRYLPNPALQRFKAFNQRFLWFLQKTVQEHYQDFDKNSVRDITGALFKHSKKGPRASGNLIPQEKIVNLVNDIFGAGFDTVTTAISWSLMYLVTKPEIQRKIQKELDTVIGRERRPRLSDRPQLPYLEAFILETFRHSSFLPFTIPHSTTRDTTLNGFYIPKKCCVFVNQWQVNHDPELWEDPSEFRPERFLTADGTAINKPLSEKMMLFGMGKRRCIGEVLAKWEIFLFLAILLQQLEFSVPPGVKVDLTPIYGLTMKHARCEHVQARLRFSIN

[1] = Luminescence Cell-Based Dose Retest to Confirm Inhibitors of Cancer Stem Cells. [Related pubchem assays (depositor defined):AID2717, AID2721]; format: functional; conditions: Homo sapiens
Streptokinase A = biological target: T3, Streptokinase A (Streptococcus pyogenes serotype M1, UniProt P10520); test: S. pyogenes streptokinase expression inhibitors, potency, dose response, plasminogen activation absorbance, OD405 (AID 1914); format: functional, Streptococcus pyogenes M1 GAS;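 further: secreted streptokinase activity via plasminogen activation per viability signal from cell pellet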
T3 sequence (P10520 whole entry): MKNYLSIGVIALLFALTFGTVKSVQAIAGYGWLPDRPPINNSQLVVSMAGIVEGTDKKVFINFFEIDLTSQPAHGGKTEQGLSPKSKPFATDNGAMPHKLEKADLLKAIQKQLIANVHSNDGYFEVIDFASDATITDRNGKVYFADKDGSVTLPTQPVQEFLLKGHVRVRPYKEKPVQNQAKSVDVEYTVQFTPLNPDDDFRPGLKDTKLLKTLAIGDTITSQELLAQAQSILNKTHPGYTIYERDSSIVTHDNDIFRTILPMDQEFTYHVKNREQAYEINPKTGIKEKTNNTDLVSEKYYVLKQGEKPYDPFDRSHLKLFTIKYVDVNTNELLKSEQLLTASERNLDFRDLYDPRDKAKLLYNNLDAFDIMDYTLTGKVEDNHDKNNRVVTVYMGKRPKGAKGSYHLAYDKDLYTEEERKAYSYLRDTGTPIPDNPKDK

[2] = test system: Streptococcus sp. 'group A'; test: growth inhibition of control SK(-) GAS strain, dose response, counter-screen for streptokinase expression inhibitor project, luminescence, kanamycin, BacTiterGlo, confirmation (AID 1900); format: functional, organism-based
INS1 = test: beta cell apoptosis inhibitors, cytokine rescue, dose response, luminescence, retest (AID 449756); format: functional, cell-based; conditions: Rattus norvegicus;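 further: cell death triggered by IL-1 beta plus TNF-alpha plus IFN-gamma mixture; protective hits raise ATP signal compared with cytokine alone wells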
Streptococcus = test: Group A Streptococcus viability loss, dose response, counter-screen for streptokinase expression inhibitor project, luminescence, BacTiterGlo (AID 1915); format: functional, organism-based;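 further: potency for reduction of bacterial viability or growth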
[3] = biological target: Heat shock protein HSP 90-alpha (Homo sapiens, UniProt P07900); format: functional, organism-based
[4] = inhibitors of intracellular T. cruzi replication, confirmation, NIH3T3 host cells, beta-gal luminescence (AID 2044); format: functional, cell-based;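 further: intracellular parasites grown in NIH/3T3 mouse fibroblasts as host cells; luminescent beta-galactosidase reporter signal from transgenic T. cruzi replicating inside host cells; inhibitors lower the luminescence signal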
[5] = cytotoxicity toward NIH3T3 fibroblasts, dose response, counter-screen, cell-based, ATP luminescence, mouse fibroblasts (AID 2010); format: functional;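 further: cells exposed to compound for about 90 hours before reading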
Cytochrome P450 2C19 = Cytochrome P450 2C19 (Homo sapiens, UniProt P33261); test: Cytochrome panel assay with activity outcomes. Panel member name: p450-cyp2c19 Compounds with AC50 equal or less than 10 uM are considered active; format: functional
Chain of Cytochrome P450 2C19 (P33261 whole entry): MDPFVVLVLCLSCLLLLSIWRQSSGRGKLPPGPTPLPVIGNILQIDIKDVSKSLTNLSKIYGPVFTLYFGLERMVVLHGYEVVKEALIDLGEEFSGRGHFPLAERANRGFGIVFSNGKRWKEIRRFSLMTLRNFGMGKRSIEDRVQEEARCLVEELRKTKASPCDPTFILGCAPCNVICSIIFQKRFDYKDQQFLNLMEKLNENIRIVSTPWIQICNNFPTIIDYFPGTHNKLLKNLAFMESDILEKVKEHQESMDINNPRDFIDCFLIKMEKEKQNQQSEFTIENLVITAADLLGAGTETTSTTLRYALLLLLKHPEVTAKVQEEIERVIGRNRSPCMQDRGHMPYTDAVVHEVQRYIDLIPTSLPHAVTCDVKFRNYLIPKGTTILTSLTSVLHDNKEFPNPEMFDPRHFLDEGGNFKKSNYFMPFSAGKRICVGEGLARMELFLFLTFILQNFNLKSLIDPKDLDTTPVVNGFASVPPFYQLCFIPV

[6] = biological target: T4, Corticotropin-releasing factor receptor 2/Corticotropin-releasing factor-binding protein (Homo sapiens, UniProt P24387+Q13324); test: activators of CRF receptor 2 with binding protein – uHTS hits, confirmation (AID 602473); format: functional; conditions: read-out: EC50_Mean
T4 sequence (Q13324 whole entry): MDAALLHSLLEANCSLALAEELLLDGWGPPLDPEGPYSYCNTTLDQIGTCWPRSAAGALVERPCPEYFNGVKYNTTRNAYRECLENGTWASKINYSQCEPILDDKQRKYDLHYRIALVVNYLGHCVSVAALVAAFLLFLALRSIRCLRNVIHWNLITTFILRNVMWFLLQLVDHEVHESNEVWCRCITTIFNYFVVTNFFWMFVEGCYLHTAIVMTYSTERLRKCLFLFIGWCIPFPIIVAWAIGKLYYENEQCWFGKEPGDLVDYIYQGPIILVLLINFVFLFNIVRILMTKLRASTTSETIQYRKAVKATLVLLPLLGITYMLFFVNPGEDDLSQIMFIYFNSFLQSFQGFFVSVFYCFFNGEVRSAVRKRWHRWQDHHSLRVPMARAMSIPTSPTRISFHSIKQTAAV
T4 sequence (P24387 whole entry): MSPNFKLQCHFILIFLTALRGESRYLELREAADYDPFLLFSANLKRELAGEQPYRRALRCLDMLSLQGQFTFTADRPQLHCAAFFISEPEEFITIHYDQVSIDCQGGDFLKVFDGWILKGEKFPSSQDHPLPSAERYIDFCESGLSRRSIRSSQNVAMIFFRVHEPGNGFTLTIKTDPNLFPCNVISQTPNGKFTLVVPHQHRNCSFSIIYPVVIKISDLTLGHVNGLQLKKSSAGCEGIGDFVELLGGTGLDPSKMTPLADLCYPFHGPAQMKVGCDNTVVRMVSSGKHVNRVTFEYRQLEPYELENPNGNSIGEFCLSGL

Cytochrome P450 2C9 = Cytochrome P450 2C9 (Homo sapiens, UniProt P11712)
Chain of Cytochrome P450 2C9 (P11712 whole entry): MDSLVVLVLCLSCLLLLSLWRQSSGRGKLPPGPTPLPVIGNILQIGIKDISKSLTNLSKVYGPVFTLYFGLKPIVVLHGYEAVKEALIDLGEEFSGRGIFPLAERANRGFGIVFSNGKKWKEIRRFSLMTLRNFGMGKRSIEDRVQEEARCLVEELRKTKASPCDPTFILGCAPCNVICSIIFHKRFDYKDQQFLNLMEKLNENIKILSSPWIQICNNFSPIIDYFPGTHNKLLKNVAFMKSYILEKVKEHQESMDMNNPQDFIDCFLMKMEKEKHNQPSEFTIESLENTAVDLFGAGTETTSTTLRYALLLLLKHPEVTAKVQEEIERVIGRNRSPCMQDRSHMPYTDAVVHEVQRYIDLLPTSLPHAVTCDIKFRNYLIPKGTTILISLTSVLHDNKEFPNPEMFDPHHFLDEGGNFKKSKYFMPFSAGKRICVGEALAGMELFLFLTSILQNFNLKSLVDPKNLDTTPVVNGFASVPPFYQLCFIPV

Cytochrome P450 3A4 = Cytochrome P450 3A4 (Homo sapiens, UniProt P08684);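 further: CYP3A4 tested as one member of a cytochrome P450 panel screen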
Chain of Cytochrome P450 3A4 (P08684 whole entry): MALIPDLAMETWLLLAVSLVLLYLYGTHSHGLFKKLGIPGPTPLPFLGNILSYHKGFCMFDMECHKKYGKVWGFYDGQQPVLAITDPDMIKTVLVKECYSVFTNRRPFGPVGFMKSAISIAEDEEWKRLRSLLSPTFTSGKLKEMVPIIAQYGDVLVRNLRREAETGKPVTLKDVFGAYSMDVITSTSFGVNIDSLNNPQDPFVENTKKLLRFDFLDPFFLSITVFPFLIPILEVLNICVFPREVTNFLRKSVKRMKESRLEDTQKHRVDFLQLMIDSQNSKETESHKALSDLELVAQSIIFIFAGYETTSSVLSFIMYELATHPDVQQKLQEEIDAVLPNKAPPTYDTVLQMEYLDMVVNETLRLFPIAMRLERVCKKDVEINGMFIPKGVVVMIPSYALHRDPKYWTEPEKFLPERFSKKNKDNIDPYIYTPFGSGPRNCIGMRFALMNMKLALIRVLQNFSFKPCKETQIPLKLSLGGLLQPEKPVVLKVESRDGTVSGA

Chain of Cytochrome P450 2D6 (P10635 whole entry): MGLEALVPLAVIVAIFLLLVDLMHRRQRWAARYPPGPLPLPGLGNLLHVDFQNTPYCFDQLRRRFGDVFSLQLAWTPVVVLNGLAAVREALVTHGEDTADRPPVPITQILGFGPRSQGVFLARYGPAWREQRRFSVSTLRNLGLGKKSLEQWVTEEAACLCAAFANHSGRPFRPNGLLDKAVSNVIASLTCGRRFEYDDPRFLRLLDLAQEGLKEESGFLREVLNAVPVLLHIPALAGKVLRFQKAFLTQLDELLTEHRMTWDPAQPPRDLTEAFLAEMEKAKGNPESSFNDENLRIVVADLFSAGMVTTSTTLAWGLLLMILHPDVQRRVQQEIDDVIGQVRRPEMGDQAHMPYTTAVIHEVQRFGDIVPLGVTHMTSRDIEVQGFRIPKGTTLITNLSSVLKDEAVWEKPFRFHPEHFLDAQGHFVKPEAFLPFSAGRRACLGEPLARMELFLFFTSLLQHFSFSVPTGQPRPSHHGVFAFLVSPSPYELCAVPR

## CCOc1ccc2nc(O)c(CN(CCc3ccccc3)C(=O)N3CCCC3)cc2c1
Cytochrome P450 2D6
  AC50: 22.4 µM (inconclusive)

## c1csc(-c2nc(-c3ccncc3)no2)c1
Protein skinhead-1
  IC50: 22.2 µM (active)

## COc1ccc(CC(=O)Nc2cccc(-c3nnc(-c4ccco4)o3)c2)cc1
Cytochrome P450 1A2
  AC50: 15.8 µM (inconclusive)
Cytochrome P450 2D6
  AC50: 20 µM (inconclusive)

## O=C(Nc1ccc(Br)c(C(F)(F)F)c1)c1ccc(C(F)(F)F)cc1
[1]
  AC50: 2.06 µM (active)
Streptokinase A
  EC50: > 150 µM (not active)
[2]
  EC50: 1.74 µM (active)
INS1
  AC50: 8.01 µM (active)
Streptococcus
  EC50: 3.98 µM (active)

## CCOC(=O)c1cccc(C2=CC(=O)C[C@H](c3ccc(Cl)cc3)C2)c1
[1]
  AC50: 0.885 µM (active)

## CC(C)C1COC(c2cccc3ccccc23)=N1 (stereo not drawn)
Protein skinhead-1
  IC50: 25 µM (active)

## c1ccc2oc(SCc3nc4ccccc4s3)nc2c1
Protein skinhead-1
  IC50: 37.5 µM (active)

## CCCC1(C(=O)OCC)NC(c2ccc(N(C)C)cc2)C2C(=O)N(c3ccccc3)C(=O)C21 (stereo not drawn)
Protein skinhead-1
  IC50: > 100 µM (inactive)

## CSc1nc2ccc(S(=O)(=O)NC3CCCCC3)cc2s1
[3]
  AC50: 8.57 µM (active)

## CC1CCN(S(=O)(=O)c2ccc(C(=O)N3CCOCC3)cc2)CC1
Protein skinhead-1
  IC50: > 100 µM (inactive)

## CCN(C(=O)COC(=O)c1cc(-c2cccc3ccccc23)nc2ccccc12)C1CCS(=O)(=O)C1 (stereo not drawn)
Protein skinhead-1
  IC50: > 100 µM (inactive)

## O=C(CN=C(S)N(Cc1ccccc1)Cc1ccccc1F)NCCc1ccc(Cl)cc1
[1]
  AC50: 5.59 µM (active)
[4]
  EC50: 1.92 µM (active)
[5]
  EC50: > 60 µM (not active)

## Brc1ccc(-c2nnc(-c3ccccc3Br)o2)cc1
Protein skinhead-1
  IC50: > 100 µM (inactive)

## Cc1ccc(N2CCN(S(=O)(=O)c3ccc4oc(=O)ccc4c3)CC2)c(C)c1
Protein skinhead-1
  IC50: > 100 µM (inactive)

## O=C(Nc1ccc(Cl)c(Cl)c1)Nc1ccon1
Streptokinase A
  EC50: > 150 µM (not active)
[2]
  EC50: 44.4 µM (active)
Protein skinhead-1
  IC50: > 100 µM (inactive)
Streptococcus
  EC50: 38.7 µM (active)

## CCNc1ncc2nc(-c3ccccc3)c(=O)n(C3CC3)c2n1
Cytochrome P450 2D6
  AC50: 1.26 µM (inconclusive)

## NC(=S)Nc1ccc(Oc2ccc(NC(N)=S)cc2)cc1
Cytochrome P450 2D6
  AC50: 14.1 µM (inconclusive)
Cytochrome P450 2C19; read-out: AC50
  AC50: 25.1 µM (inconclusive)

## COc1ccc(C(C)C)cc1S(=O)(=O)n1cnc(C)c1
Protein skinhead-1
  IC50: > 100 µM (inactive)

## O=C(Nc1nc(-c2ccc(Cl)s2)cs1)c1ccccc1
Protein skinhead-1
  IC50: 68.3 µM (inactive)

## c1ccc(CCn2nnnc2CN2CCCc3ccccc32)cc1
[6]
  EC50: > 53 µM (inactive)

## C[C@@]12CC[C@H]3[C@H](CC=C4C[C@@H](O)CC[C@@]43C)[C@@H]1CC[C@@H]2N(CCO)CCO
Cytochrome P450 2D6
  AC50: 3.98 µM (inconclusive)
Cytochrome P450 2C19
  AC50: inconclusive

## CNc1nc(-c2ccoc2)nc2ccccc12
Cytochrome P450 2D6
  AC50: 39.8 µM (inconclusive)

## C#CCCCC(=S)Nc1ccccc1
Cytochrome P450 2C9
  AC50: 39.8 µM (inconclusive)
Cytochrome P450 3A4
  AC50: 25.1 µM (inconclusive)
Cytochrome P450 2D6
  AC50: 39.8 µM (inconclusive)
Cytochrome P450 2C19; read-out: AC50
  AC50: 39.8 µM (inconclusive)

## O=C(CSCC(=O)OCn1nnc2ccccc2c1=O)Nc1ccc(Cl)cc1
Cytochrome P450 1A2
  AC50: 25.1 µM (inconclusive)
Cytochrome P450 2D6
  AC50: 25.1 µM (inconclusive)

## CSc1cccc(NC(=O)C2C3C=CC4(O3)C2C(=O)N(CCN2CCOCC2)C4C(=O)NC2CCCCC2)c1 (stereo not drawn)
Protein skinhead-1
  IC50: > 100 µM (inactive)

## COc1ccc(-c2nn(-c3ccccc3)cc2C(=O)N(C)CC(=O)Nc2cccc(F)c2)cc1
[1]
  AC50: 12.9 µM (active)

## CCC(C)c1ccc(NC(=O)C2CC3CCC2C3)cc1 (stereo not drawn)
[1]
  AC50: 4.53 µM (active)

## CC(C(=O)O)N1C(=O)CSc2ncccc21 (stereo not drawn)
[1]
  AC50: > 195 µM (inactive)

## CC(C)(C)[C@@H]1CCC(=O)N(CC[C@H](Sc2ccc(Br)cc2)c2ccccc2)CC1
[1]
  AC50: 3.18 µM (active)

## O=[N+]([O-])c1ccc(O)c(C2CCCCC2)c1
[3]
  AC50: 8.09 µM (active)

## CN(C(=O)C1Cc2c(-c3ccccc3Oc3ccccc3)ccnc2O1)c1ccccc1 (stereo not drawn)
Protein skinhead-1
  IC50: > 100 µM (inactive)

## O=C(NC(c1ccc(-c2ccccc2)cc1)c1cnccn1)C1CCN(CCOc2ccc(Cl)cc2Cl)CC1 (stereo not drawn)
Protein skinhead-1
  IC50: > 100 µM (inactive)

## C/C(=N\NC(N)=S)c1cc(-c2ccccc2)c(-c2ccccc2)s1
[1]
  AC50: 3.27 µM (active)

## CCOC(=O)c1ccccc1N/C=C1\CCCCC1=O
Cytochrome P450 2C9
  AC50: 39.8 µM (inconclusive)
Cytochrome P450 2D6
  AC50: 35.5 µM (inconclusive)

## O=C1NC(c2cccc([N+](=O)[O-])c2)=CCN1c1ccccc1O [ICILLIN]
Cytochrome P450 1A2
  AC50: 31.6 µM (inconclusive)
Cytochrome P450 2D6
  AC50: 20 µM (inconclusive)
